Laboratory results from PMC12249905, “Substituted Triazole-3,5-Diamine Compounds as Novel Human Topoisomerase III Beta Inhibitors” (International Journal of Molecular Sciences, 2025).

Legend:
[1] = Cell viability of human dermal fibroblasts (CellTiter-Blue); format: cell-based; settings: primary human dermal fibroblasts (HdFa), 100 µM (highest concentration), 24 h exposure, relative to untreated control
Procedure: Human dermal fibroblasts (HdFa; PCS-210-012™, ATCC, Manassas, VA, USA) were cultured in Dulbecco’s Modified Eagle Medium (DMEM; supplemented with GlutaMAX™ and sodium pyruvate; Gibco, Waltham, MA, USA), containing 10% fetal bovine serum (FBS; Gibco) and 1% penicillin-streptomycin (10,000 U/mL; Gibco). Cells were maintained in T75 tissue culture flasks (Thermo Scientific Nunc™, Roskilde, Denmark) under standard incubation conditions (37 °C, 5% CO2, humidified atmosphere). Upon reaching confluency, cells were harvested and seeded into black-walled, clear-bottom, 96-well plates at a density of 5000 cells/well in 100 µL of complete growth medium. Following overnight incubation, the cells reached approximately 80–90% confluence. […]
After 24 h of compound exposure, 20 µL of CellTiter-Blue® reagent (Promega, WI, USA) was added to each well. Plates were incubated for an additional 2 h at 37 °C, after which the fluorescence of the metabolized resorufin product was measured using a Synergy Multi-Mode Plate Reader (BioTek Instruments, Winooski, VT, USA) at an excitation wavelength of 560 nm and an emission wavelength of 590 nm. Cellular viability in response to the test compounds was expressed as a percentage relative to the untreated control group.(1) Cell viability (%)=Fluorescenceintensityoftreatedcells/Fluorescenceintensityofcontrolcells×[…]

[2] = target: T1, human TOP3B (Homo sapiens, UniProt O95985); assay: Assay of inhibition of human TOP3B relaxation activity (chloroquine gel electrophoresis, TDRD3 present); format: biochemical; settings: for IC50: DNA relaxation, 18 nM TOP3B and TDRD3, supercoiled pBAD/Thio plasmid, 37 °C 1 h; for Inhibition of the DNA relaxation activity of human TOP3B: tested at up to 200 µM
T1 construct: GST (N); 6xHis (C); purchased Genscript (custom production); host or cells: sf9 insect cells (TOP3B); E. coli Rosetta(DE3) (TDRD3, made in house)
T1 sequence (O95985 1-862): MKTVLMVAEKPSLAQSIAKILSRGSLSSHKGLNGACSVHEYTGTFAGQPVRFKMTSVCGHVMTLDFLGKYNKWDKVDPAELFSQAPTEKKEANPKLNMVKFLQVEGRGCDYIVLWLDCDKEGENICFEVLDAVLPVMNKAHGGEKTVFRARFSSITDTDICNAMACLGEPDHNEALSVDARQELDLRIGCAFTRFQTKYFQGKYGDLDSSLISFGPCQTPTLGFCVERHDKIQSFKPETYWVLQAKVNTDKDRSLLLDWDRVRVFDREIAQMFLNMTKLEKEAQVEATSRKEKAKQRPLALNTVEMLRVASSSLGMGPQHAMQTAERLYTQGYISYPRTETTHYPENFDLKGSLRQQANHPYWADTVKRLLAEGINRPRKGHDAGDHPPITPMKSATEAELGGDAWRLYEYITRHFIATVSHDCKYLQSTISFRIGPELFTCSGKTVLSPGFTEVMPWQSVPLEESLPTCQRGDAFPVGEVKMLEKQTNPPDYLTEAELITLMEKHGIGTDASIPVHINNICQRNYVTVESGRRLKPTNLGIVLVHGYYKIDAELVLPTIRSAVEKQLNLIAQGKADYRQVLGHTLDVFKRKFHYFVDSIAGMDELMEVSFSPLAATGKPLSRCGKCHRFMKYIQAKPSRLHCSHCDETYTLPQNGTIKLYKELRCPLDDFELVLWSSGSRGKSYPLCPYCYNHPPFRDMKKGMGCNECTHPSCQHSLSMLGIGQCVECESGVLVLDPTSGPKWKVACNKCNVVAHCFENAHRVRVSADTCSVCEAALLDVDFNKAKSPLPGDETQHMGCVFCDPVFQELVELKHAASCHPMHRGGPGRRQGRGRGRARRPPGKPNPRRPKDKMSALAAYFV
Excerpt: Human TOP3B protein was obtained through custom production by Genscript. The coding sequence of human TOP3B was custom synthesized by Genscript and cloned into vector pFastBacGST to generate the recombinant baculovirus expressing human TOP3B protein with the N-terminal GST tag and C-terminal 6xHis tag. Following expression in sf9 insect cells, the recombinant TOP3B protein was purified to >95% homogeneity by Genscript using GST column and superdex 200 16/600G chromatography. A buffer containing 20 mM of Tris-HCl (pH 7.5), 750 mM of KCl, 10% glycerol, 1 mM of EDTA, 0.05% NP-40, and 1mM of DTT was used for storage and dilution.
The presence of the TDRD3 protein enhances the relaxation activity of human TOP3B through the direct binding of the proposed TOP3B hinge region for gate opening and closing. The human TDRD3 coding sequence was amplified by PCR from the TDRD3 clone in pEGFP-C1 [45] using a forward primer of 5′-[…]-3′ and a reverse primer of 5′-[…]-3′. The amplified TDRD3 gene was joined with the backbone of the DHFR-His plasmid (from New England BioLab) using the NEB HiFi assembly kit with the forward primer 5′-[…]-3′ and the reverse primer 5′-[…]-3′ so that the TDRD3 gene replaced the DHFR gene. The his-tagged TDRD3 protein was expressed from the T7 promoter in E. coli Rosetta(DE3) cells and purified using the HisPur Ni-NTA spin column from Thermo Fisher according to the manufacturer’s protocol.
Inhibition of the relaxation activity of human TOP3B was carried out in a reaction buffer containing 20 mM of HEPES-KOH, with a pH of 7.5, 1 mM of DTT, 0.1 mg/mL of BSA, and 5 mM of MgCl2. TOP3B and TDRD3 were added at 18 nM to each reaction mix followed by 0.5 μL of DMSO or indicated concentrations of compounds, and lastly by the addition of 500 ng of supercoiled pBAD/Thio plasmid DNA (purified by CsCl gradient centrifugation) for a final reaction volume of 20 μL. After mixing by gentle vortex, the reaction mixtures were spun down and incubated at 37 °C for 1 h. The relaxation reactions were terminated by the addition of 1 μL of 10% SDS and 2 μL of 800 units/mL of proteinase K (New England Biolabs) and incubated at 45 °C for 30 min. Following the addition of 5 μL of stop solution (50 mM of EDTA, 50% glycerol, and 0.5% v/v bromophenol blue), the reaction products were analyzed in a 1% agarose gel with TAE (40 mM of Tris-acetate, pH 8.0, 2 mM of EDTA) buffer containing 5 μg/mL of chloroquine at 25 V (1 V/cm) for 18 h. Gels were washed with TAE buffer for 1 h and 50 mM of NaCl for 1 h to remove the chloroquine, and finally with deionized water for 30 min. Gels were stained for 2 h with 1 μg/mL of SYBR Gold solution (Thermo Fischer Scientific, Waltham, MA, USA). Gels were destained with deionized water for 15 min and photographed over UV light with the AlphaImager system. The amount of the relaxed DNA produced by TOP3B in each reaction was quantified using the AlphaImager software version 1.5.0 to calculate the percentage of inhibition versus the DMSO control.

[3] = target: T2, human TOP1 (Homo sapiens, UniProt P11387); assay: Assay of inhibition of human TOP1 relaxation activity (gel electrophoresis); format: biochemical; settings: DNA relaxation, 1 unit enzyme, supercoiled pBAD/Thio plasmid, 37 °C 30 min
T2 construct: made in house; host or cells: Saccharomyces cerevisiae strain EKY3
T2 sequence (P11387 1-765): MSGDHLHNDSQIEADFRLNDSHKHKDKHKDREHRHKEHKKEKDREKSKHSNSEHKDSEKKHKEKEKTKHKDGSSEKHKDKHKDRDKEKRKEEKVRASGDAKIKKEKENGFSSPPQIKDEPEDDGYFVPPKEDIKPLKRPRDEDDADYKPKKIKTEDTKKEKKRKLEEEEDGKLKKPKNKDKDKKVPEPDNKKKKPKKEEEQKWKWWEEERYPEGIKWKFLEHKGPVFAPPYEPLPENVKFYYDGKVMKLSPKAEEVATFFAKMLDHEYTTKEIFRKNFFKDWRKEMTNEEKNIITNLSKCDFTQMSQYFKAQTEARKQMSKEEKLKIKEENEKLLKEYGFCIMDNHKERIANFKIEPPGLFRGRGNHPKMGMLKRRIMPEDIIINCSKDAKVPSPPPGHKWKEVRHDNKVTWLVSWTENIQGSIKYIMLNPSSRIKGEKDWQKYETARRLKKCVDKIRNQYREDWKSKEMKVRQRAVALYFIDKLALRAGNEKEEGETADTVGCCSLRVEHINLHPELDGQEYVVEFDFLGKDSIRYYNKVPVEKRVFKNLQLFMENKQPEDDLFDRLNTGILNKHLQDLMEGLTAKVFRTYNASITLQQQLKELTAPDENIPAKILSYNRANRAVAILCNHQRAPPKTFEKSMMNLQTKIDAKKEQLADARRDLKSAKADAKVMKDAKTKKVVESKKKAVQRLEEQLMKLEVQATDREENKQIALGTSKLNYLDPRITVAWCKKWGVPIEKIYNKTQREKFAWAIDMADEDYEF
Procedure: Recombinant human TOP1 was expressed from clone pYES2-TOP1 transformed into Saccharomyces cerevisiae strain EKY3 [46]. Inhibition of TOP1 relaxation activity was assayed as described in a 20 µL reaction containing 200 ng of supercoiled pBAD/Thio plasmid DNA and 1 unit of enzyme in 10 mM of Tris-HCl, with a pH of 8.0, 1 mM of EDTA, 150 mM of NaCl, 0.1 mM of spermidine, 0.1 mg/mL of BSA, and 5% glycerol. The reactions were incubated at 37 °C for 30 min before the addition of 4 µL of stop solution (6% SDS, 0.6% (wv/v)) bromophenol blue and 40% glycerol. Gel electrophoresis for the separation of the supercoiled DNA substrate from the relaxed DNA was conducted in 1% agarose gel with TAE buffer for 20 h at 25 V. The DNA was stained with ethidium bromide for an hour and then soaked in water for 5 min. Gels were photographed over UV light with the AlphaImager system. The amount of the supercoiled DNA substrate remaining in each reaction was quantified using the AlphaImager software to calculate the percentage of inhibition versus the DMSO control.

Structure (SMILES)	Inhibition of the DNA relaxation activity of human TOP3B [2]	other results
CC(C)[C@H](N)C(=O)n1nc(Nc2ccccc2/C=C/C(N)=O)nc1N [2710-33-343]		viability at 24 h, 100 µM [1]: ~60%
CC(C)C[C@H](N)C(=O)n1nc(Nc2ccccc2/C=C/C(N)=O)nc1N [2710-34-357]		IC50 [2]: 34.5 µM; IC50 [3]: 31.9 µM
Nc1nc(Nc2ccc3c(c2)CC[C@@H](N2CCCC2)CC3)nn1-c1cc2c(nn1)-c1ccccc1CCC2 [Bemcentinib]	Inhibition was observed only for bemcentinib	IC50 [2]: 34.3 µM; Selectivity for inhibition of TOP3B versus TOP1 ([2]; comparison of IC50 values TOP3B vs TOP1): inhibits TOP3B with greater potency than TOP1; IC50 [3]: 75.8 µM
CN1CCN(C2CCN(C(=O)Nc3cc(Oc4ccc(NC(=O)C5(C(=O)Nc6ccc(F)cc6)CC5)c(F)c4)ccn3)CC2)CC1 [Golvatinib]	Inhibition was observed only for bemcentinib	
Cc1cn(-c2cc(NC(=O)c3ccc(C)c(Nc4nccc(-c5cccnc5)n4)c3)cc(C(F)(F)F)c2)cn1 [Nilotinib]	Inhibition was observed only for bemcentinib	
Cc1cn(-c2cc(NC(=O)c3ccc(C)c(Nc4nccc(-c5cnccn5)n4)c3)cc(C(F)(F)F)c2)cn1 [Radotinib]	Inhibition was observed only for bemcentinib	
CNC(=O)c1cc(Oc2ccc(NC(=O)Nc3cc(C(C)(C)C)nn3-c3ccc4ncccc4c3)c(F)c2)ccn1 [Rebastinib]	Inhibition was observed only for bemcentinib	
Cc1cc(Nc2ncnc3ccc(NC4=NC(C)(C)CO4)cc23)ccc1Oc1ccn2ncnc2c1 [Tucatinib]	Inhibition was observed only for bemcentinib	
